This note sets out measurements from ChEMBL document CHEMBL1142396, “Structure-activity relationships among the nitrogen containing bisphosphonates in clinical use and other analogues: time-dependent inhibition of human farnesyl pyrophosphate synthase” (J Med Chem, 2008).

Structures are written as SMILES. Active and inactive are the calls of the source. No cut-off for these calls is given here.

Broadly, the IC50 is the concentration that inhibits the measured activity by half. Lower therefore signals inhibition by little substance. The term Ki denotes a measure of affinity in units of concentration, obtained from inhibition or displacement. The low end stands for higher affinity, the high end for lower affinity.

For assay [1], the species on record is Rattus norvegicus. In words: Inhibition of bone resorption in rat assessed as phosphate. In kind it is functional.
In assay [2] the target is T1, Farnesyl pyrophosphate synthase (Homo sapiens, UniProt P14324).
T1 sequence (P14324 whole entry): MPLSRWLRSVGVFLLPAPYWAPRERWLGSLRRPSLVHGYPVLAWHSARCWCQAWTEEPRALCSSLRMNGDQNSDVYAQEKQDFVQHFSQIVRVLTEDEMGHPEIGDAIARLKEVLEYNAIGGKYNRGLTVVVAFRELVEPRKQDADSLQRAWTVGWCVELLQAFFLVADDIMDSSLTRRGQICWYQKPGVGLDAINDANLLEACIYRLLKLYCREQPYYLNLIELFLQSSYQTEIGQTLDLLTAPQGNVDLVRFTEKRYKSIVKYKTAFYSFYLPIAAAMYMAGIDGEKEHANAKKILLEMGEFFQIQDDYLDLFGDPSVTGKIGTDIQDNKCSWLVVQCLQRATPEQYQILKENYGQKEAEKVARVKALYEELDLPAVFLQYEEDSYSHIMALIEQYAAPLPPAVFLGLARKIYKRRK

Assay [3] addresses T1, Farnesyl pyrophosphate synthase. This is another data set of the same source.

In the case of `O=P(O)(O)C(O)(Cc1cccnc1)P(=O)(O)O` [RISEDRONIC ACID], the LED in assay [1] worked out at 0.3 µg/kg.

For `C[n+]1cccc(CC(O)(P(=O)(O)O)P(=O)(O)O)c1`, in assay [2], the IC50 was determined as 0.0196 µM and the inhibition constant (Ki) amounted to 0.0039 µM. In assay [1], the LED stood at 0.1 µg/kg. Further, in assay [3], half-maximal inhibition (IC50) was put at 1.71 µM and the Ki turned out to be 0.177 µM.

For `CCCCCN(C)CCC(O)(P(=O)(O)O)P(=O)(O)O` [IBANDRONIC ACID], in assay [1], the LED turned out to be 0.1 µg/kg.

On to `NCCCCC(O)(P(=O)(O)O)P(=O)(O)O`, for which, in assay [2], the IC50 was 0.298 µM and affinity was put at a Ki of 0.0482 µM. In addition, in assay [3], half-maximal inhibition (IC50) was put at 1.08 µM and the affinity corresponds to a Ki of 0.194 µM.

As to `Cc1cccnc1NC(P(=O)(O)O)P(=O)(O)O`, the LED in assay [1] was 1 µg/kg.

For `O=P(O)(O)C(O)(CCc1cccnc1)P(=O)(O)O`, in assay [1], the LED turned out to be 1000 µg/kg.

Turning to `O=P(O)(O)C(O)(CC1CCCCN1)P(=O)(O)O` (stereo not given), in assay [2], half-maximal inhibition (IC50) required 0.0137 µM and the affinity corresponds to a Ki of 0.0016 µM. For the same compound, the LED in assay [1] was found to be 1 µg/kg. In assay [3], this compound showed an IC50 of 0.592 µM and a Ki of 0.137 µM.

With `NCCC(O)(P(=O)(O)O)P(=O)(O)O` [PAMIDRONIC ACID], in assay [1], the LED worked out at 30 µg/kg.

Take `O=C(O)C(O)(Cc1cccnc1)P(=O)(O)O` (stereo not given): the inhibitory constant (Ki) in assay [2] is 61 µM. Further, the LED in assay [1] came out at 300 µg/kg. Also, in assay [3], the midpoint of inhibition, the IC50, lay at 467 µM and the affinity corresponds to a Ki of 97.5 µM.

As for `O=P(O)(O)C(CC1CCCCN1)P(=O)(O)O` (stereo not given), in assay [2], the IC50 turned out to be 0.0238 µM and the Ki amounted to 0.00328 µM. Moreover, in assay [3], the IC50 was found to be 0.869 µM and the affinity, expressed as Ki, was 0.112 µM.

Turning to `Cc1cccnc1NCC(P(=O)(O)O)P(=O)(O)O`, in assay [2], the IC50 is 0.734 µM and the Ki came to 0.196 µM. Besides, the LED in assay [1] worked out at 1000 µg/kg. In assay [3], this compound came in with an IC50 of 0.989 µM and a Ki of 0.155 µM.

In the case of `O=P(O)(O)C(CNc1ccccn1)P(=O)(O)O`, the LED in assay [1] was 10 µg/kg.

In assay [2], `CC1CCCN=C1NC(P(=O)(O)O)P(=O)(O)O` (stereo not given) yielded an IC50 of 0.0103 µM and a Ki of 0.001 µM. Also, the LED in assay [1] was determined as 0.3 µg/kg. In assay [3], inhibition was half-maximal at 0.541 µM (IC50) and the Ki came out at 0.0863 µM.

Regarding `O=P(O)(O)C(Cc1cccnc1)P(=O)(O)O`, the half-inhibitory concentration (IC50) in assay [2] was found to be 0.0326 µM; in assay [3] it was 0.173 µM. Also, the results for the Ki in assay [2] and in assay [3] were 0.0074 µM and 0.0348 µM, respectively. The LED in assay [1] came to 10 µg/kg.

As to `O=P(O)(O)C(O)(Cc1ccccc1)P(=O)(O)O`, the LED in assay [1] worked out at 100 µg/kg.

For `O.O=P(O)(O)C(O)(Cn1ccnc1)P(=O)(O)O` [ZOLEDRONIC ACID], in assay [1], the LED was 0.1 µg/kg.

In assay [2], `O=P(O)(O)C(Cc1ccccn1)P(=O)(O)O` [PIRIDRONIC ACID] gave an IC50 of 0.0304 µM and a Ki of 0.00445 µM. Further, in assay [1], the LED amounted to 10 µg/kg. In assay [3], this compound had an IC50 of 0.259 µM and a Ki of 0.039 µM.

In assay [2], `Cc1cccnc1NC(P(C)(=O)O)P(=O)(O)O` (stereo not given) showed an IC50 of 0.0614 µM and a Ki of 0.0116 µM. In assay [1], the LED came to 1000 µg/kg. Moreover, in assay [3], 1.89 µM corresponded to half-maximal inhibition (IC50) and the Ki came out at 0.32 µM.

With `O=P(O)(O)C(O)(Cc1ccccn1)P(=O)(O)O`, in assay [2], the midpoint of inhibition, the IC50, lay at 0.0092 µM and affinity was put at a Ki of 0.00074 µM. In assay [1], the LED worked out at 1 µg/kg. In assay [3], this compound showed an IC50 of 0.349 µM and a Ki of 0.0593 µM.

As for `Cc1cccnc1NC(P(C)(=O)O)P(C)(=O)O` (stereo not given), the IC50 in assay [2] was 330 µM; in assay [3] it was > 10000 µM. Also, the Ki is 93 µM in assay [2] and > 4000 µM in assay [3]. Moreover, the outcome in assay [1] was inactive.

As to `NCCCC(O)(P(=O)(O)O)P(=O)(O)O` [ALENDRONIC ACID], in assay [1], the LED is 1 µg/kg.

With `NCCCCCC(O)(P(=O)(O)O)P(=O)(O)O` [NERIDRONIC ACID], the LED in assay [1] came to 10 µg/kg.

Take `O=P(O)(O)OP(=O)(O)O` [PYROPHOSPHORIC ACID]: the IC50 was 181 µM in assay [2] and 243 µM in assay [3]. Further, the Ki in assay [2] was 29.8 µM; in assay [3], 40.5 µM.

With `O=P(O)(O)CCc1cccnc1`, in assay [2], the IC50 stood at 824 µM and the affinity corresponds to a Ki of 128 µM.

In the case of `Nc1ccccc1CC(O)(P(=O)(O)O)P(=O)(O)O`, the IC50 in assay [2] stood at 0.0216 µM; in assay [3], 0.371 µM. Besides, the Ki in assay [2] was 0.0034 µM; in assay [3], 0.0646 µM. In assay [1], the LED amounted to 1 µg/kg.

With `O=P(O)(O)C(Nc1ccccn1)P(=O)(O)O`, in assay [1], the LED is 10 µg/kg.

With `O=P(O)(O)C(NC1CCCCC1)P(=O)(O)O` [(CYCLOHEXYLAMINO)METHYLENEDIPHOSPHONIC ACID], the LED in assay [1] turned out to be 1 µg/kg.
